pIC50: −log10 of the molar value. Several values for one entry are separate records, joined by “and”; a condition that tells them apart may be missing. Equal entries are not always repeated. Where two headings read alike, the source gives them in different places.
Key:
NEMO = conditions: ref [21], [32]–[34]; read-out: IC50, affinity to NEMO; cited from earlier work
IL-6 production = assay: Mouse IL-6 ELISA of supernatant of LPS-stimulated Raw 264.7 cells; type: cell-based; conditions: LPS 1 μg/ml 24 h; for mIL-6 in supernatant (ELISA): Fig 4D; for Effect on LPS-induced IL-6 production (ELISA): 25 and 50 μM
Description: Fig 4 Modified lead NBD mimetics inhibit TNF-α- and LPS-induced NF-κB activation by disrupting the association between NEMO and IKKβ. (A) Structures of top NBD mimetics. (B) Measurement of NF-κB activation in response to TNF-α by using Dual-luciferase reporter assays. HEK293 cells cotransfected with NF-κB luciferase reporter and SV40-Renilla plasmids were pretreated with DMSO or listed small molecules at 0, 25, 50, 100, and 150 μM for 30 min, followed by the induction of TNF-α for 3 h. Data shown are representative of 2–3 independent experiments. […] Raw 264.7 cells were pretreated with indicated drugs for 30 min and then stimulated with 1 μg/ml of LPS for 2 h. Cells were then harvested for RNA extraction and qRT-PCR analysis. Drug concentrations used are as follows: IKKi VII (2 μM), 8K-NBD peptide (200 μM), SR12343 (50 μM), SR12460 (50 μM), SR12454 (50 μM), and SR11481 (50 μM). Data are representative of 2 independent experiments. […] Raw 264.7 cells pretreated with DMSO or drugs at indicated concentrations were exposed to 1 μg/ml of LPS for 24 h, and supernatant was collected for ELISA analysis of mouse IL-6. *P < 0.05; **P < 0.01. Underlying data can be found in S1 Data. HEK293, human embryonic kidney 293 cells; IKK, IκB kinase; IL-6, interleukin 6; LPS, lipopolysaccharide; NBD, NEMO-binding domain; n.d., nondetectable; NEMO, NF-κB essential modulator; NF-κB, nuclear factor κB; qRT-PCR, […] real-time polymerase chain reaction; TNF-α; tumor necrosis factor α. TEXT PRINTED IN THE PICTURE: (D) ikki VII: mIL-6 (ng/ml): n.d. | (D) SR12460: mIL-6 (ng/ml): n.d. (50μM) | (D) SR12454: mIL-6 (ng/ml): n.d. (50μM) DOUBTS OF THE COPYIST ABOUT THIS PICTURE: Panel D: the only printed results are the three "n.d." labels. They stand in place of bars and are assigned to ikki VII, SR12460 50μM and SR12454 50μM by their position on the axis. All other results are shown only as bars, with no printed numbers.
To confirm the qRT-PCR results, the levels of IL-6 production in Raw 264.7 cells activated by LPS were analyzed by ELISA.
Raw 264.7 cells were grown in 96-well plates and pretreated with vehicle, IKKi VII (2 μM), and small molecules (at indicated concentration) for 1 h, followed by the stimulation with 1 μg/ml of LPS. Supernatant was collected 24 h later for ELISA analysis. IL-6 concentration was measured using a mouse IL-6 ELISA kit (BD) according to the manufacturer’s instructions.

NF-κB target genes = assay: qRT-PCR of NF-κB target genes in LPS-stimulated Raw 264.7 cells; type: cell-based, mouse; conditions: LPS 1 μg/ml 2 h; for COX2 mRNA expression (qRT-PCR) / IL6 mRNA expression (qRT-PCR) / IL-1b mRNA expression (qRT-PCR) / TNFa mRNA expression (qRT-PCR) / iNOS mRNA expression (qRT-PCR) / ikBa mRNA expression (qRT-PCR): Fig 4C, IKKi VII 2 μM, 8K-NBD 200 μM, SR compounds 50 μM, relative to no LPS; for Effect on transcription of NF-κB target genes (COX-2, IL-6, IL-1β, TNF-α, IκBα, iNOS): 50 μM
[1] = Plasma and tissue concentrations 2 h after a single i.p. injection; type: in vivo, mouse; conditions: male, C57BL/6J, mouse, ip, 10 mg/kg, 2 h post single i.p. 10 mg/kg, single mice
Description: To determine the stability of the NBD mimetics in vivo, their levels were measured in the plasma of mice 2 h post i.p. injection with 10 mg/kg of each compound. The concentration of SR12460 was very high in plasma (>6.5 μg/mL; 20 μM), while levels in brain, muscle, spleen, and liver were lower. SR12343 and SR12454 had lower plasma concentrations, with SR12343 showing a higher level in liver and SR12454 showing higher concentrations in muscle and spleen. The level of SR11481 was undetectable in plasma and tissues (Fig 6A).
Fig 6 Newly identified NBD mimetics suppress LPS-induced acute inflammation in vivo. (A) The bioavailability property of SR12460, SR12343, SR12454, and SR11481. Concentrations of NBD mimetics were determined in plasma, brain, muscle, spleen, and liver 2 h post a single i.p. injection of 10 mg/kg of drugs; n = 3 per group. (B) Shown is the model to induce LPS-mediated acute inflammation and the treatment regimen with NBD mimetics. Mouse image via http://www.clker.com/clipart-mice-blank.html (copyright-free). (C) NBD mimetics suppressed LPS-induced acute inflammation in liver and lung by down-regulating NF-κB target gene expression. Vehicle, SR12343, SR12460, and 8K-NBD peptide were dosed at 10 mg/kg 30 min prior to the LPS treatment. Acute inflammation was induced by i.p. injection of 10 mg/kg LPS. Lung and liver were collected 2–4 h post injection, and mRNA was extracted for qRT-PCR analysis. (D, E) Western blot analysis was performed to probe for the expression of p-IκBα and COX-2 at protein level in liver and lung tissues. (F) Serum levels of IL-6 were determine by ELISA. n = 3–8 each group. *P < 0.05, **P < 0.01. Underlying data can be found in S1 Data. COX-2, cyclooxygenase 2; IL-6, interleukin 6; i.p., intraperitoneal; LPS, lipopolysaccharide; NBD, NEMO-binding domain; n.d., nondetectable; NEMO, NF-κB essential modulator; NF-κB, nuclear factor κB; qRT-PCR, quantitative real-time polymerase chain reaction. TEXT PRINTED IN THE PICTURE: (A) SR11481: Concentration (ng/ml): n.d. (plasma)
The pharmacokinetic profile of the NBD mimetics was determined in male C57BL/6J mice (n = 3). The drugs were formulated in 10:10:80 of DMSO:Tween 80:water and were dosed by i.p. injection at a final dose of 10 mg/kg. Blood, brain, muscle, spleen, and liver were collected 2 h post treatment and were analyzed by mass spectrometry by following a protocol previously described.

NF-κB activation = assay: Dual-luciferase (NF-κB firefly/SV40-Renilla) reporter assay, TNF-α-stimulated HEK293 cells; type: cell-based, human; conditions: for Relative luciferase activity (NF-κB/Renilla): Fig 4B, CTRL about 1; for NF-κB luciferase activity, dose-dependent curve: Fig S1A, CTRL about 100; for pIC50: Homo sapiens, HEK293, luciferase assays at 0, 25, 50, 100, 150 μM, GraphPad, read-out: IC50 of inhibition of TNF-α-mediated NF-κB activation

Compound | pIC50 (NEMO) | mIL-6 in supernatant (ELISA) (IL-6 production; 25 μM) | mIL-6 in supernatant (ELISA) (IL-6 production; 50 μM) | Effect on LPS-induced IL-6 production (ELISA) (IL-6 production) | COX2 mRNA expression (qRT-PCR) (NF-κB target genes) | IL6 mRNA expression (qRT-PCR) (NF-κB target genes) | IL-1b mRNA expression (qRT-PCR) (NF-κB target genes) | TNFa mRNA expression (qRT-PCR) (NF-κB target genes) | iNOS mRNA expression (qRT-PCR) (NF-κB target genes) | ikBa mRNA expression (qRT-PCR) (NF-κB target genes) | Effect on transcription of NF-κB target genes (COX-2, IL-6, IL-1β, TNF-α, IκBα, iNOS) (NF-κB target genes) | Relative luciferase activity (NF-κB/Renilla) (NF-κB activation; 25 μM) | Relative luciferase activity (NF-κB/Renilla) (NF-κB activation; 50 μM) | Relative luciferase activity (NF-κB/Renilla) (NF-κB activation; 100 μM) | Relative luciferase activity (NF-κB/Renilla) (NF-κB activation; 150 μM) | NF-κB luciferase activity, dose-dependent curve (NF-κB activation; 25 μM) | NF-κB luciferase activity, dose-dependent curve (NF-κB activation; 50 μM) | NF-κB luciferase activity, dose-dependent curve (NF-κB activation; 100 μM) | NF-κB luciferase activity, dose-dependent curve (NF-κB activation; 150 μM) | pIC50 (NF-κB activation) | also measured
IKKβ-derived peptide (701–746): longer IKKβ-derived peptide (701–746) with strongest affinity to NEMO (PAKKSEELVAEAHNLCTLLENAIQDTVREQDQSFTALDWSWLQTEE; UniProt O14920 701-746, looked up, fragment) | ~8.00 |  |  |  |  |  |  |  |  |  |  |  |  |  |  |  |  |  |  |  | 
O=C(COC(=O)Cc1cc(F)cc(F)c1)Nc1ccc(Cl)cn1 [SR11481] |  | 1.0708 ng/mL and 1.7487 ng/mL and 1.6903 ng/mL | 2.4581 ng/mL and 2.0675 ng/mL and 2.2021 ng/mL | significant reduction in the accumulation of IL-6 protein | 591.346 and 521.171 and 682.383 | 630.626 and 570.463 and 862.622 | 411.733 and 420.368 and 564.689 | 96.3315 and 86.7639 and 154.495 | 25.4503 and 21.5558 and 14.0886 | 12.89 and 13.062 and 21.9932 | did not induce a detectable suppression | 0.669 and 0.7893 and 1.108 | 0.3445 and 0.3583 and 0.2895 | 0.1303 and 0.1653 and 0.168 | 0.2602 and 0.3121 and 0.2334 | 67 and 79 and 111 | 34 and 36 and 29 | 13 and 16 and 17 | 26 and 31 and 23 | 4.35 | concentration at 2 h ([1]; plasma, read-out: Concentration in plasma): 0 ng/mL
O=C(COCCc1cc(F)cc(F)c1)Nc1ccc(Cl)cn1 [SR12454] |  | 0.9451 ng/mL and 1.2144 ng/mL and 1.5871 ng/mL | 0 ng/mL | inhibit IL-6 secretion significantly in a dose-dependent manner | 150.094 and 139.148 and 109.409 | 68.7623 and 55.5227 and 41.2895 | 114.812 and 133.157 and 94.1462 | 50.3605 and 45.36 and 45.9381 | 0.9093 and 0.7681 and 0.624 | 6.788 and 6.238 and 5.4976 | significantly inhibit the transcription of all NF-κB target genes tested | 0.3499 and 0.3985 and 0.4797 | 0.1222 and 0.1389 and 0.1212 | 0.07928 and 0.07742 and 0.08432 | 0.1048 and 0.1061 and 0.0973 | 35 and 40 and 48 | 12 and 14 | 8 and 7.7 and 8.4 | 10.4 and 10.6 and 9.7 | 4.69 | concentration at 2 h ([1]; liver, read-out: Concentration in liver): 50 ng/mL
11-mer NBD peptide: traditional 11-mer NBD peptide of IKKβ (735–745) (TALDWSWLQTE; NEMO-binding domain peptide; UniProt O14920 735-745, looked up, fragment) | ~4.00 |  |  |  |  |  |  |  |  |  |  |  |  |  |  |  |  |  |  |  | 

Reference: paper PMC6013238, “Development of novel NEMO-binding domain mimetics for inhibiting IKK/NF-κB activation” (PLoS Biology, 2018)
